Experimental data as given in PMC12457637, “An aptamer-drug conjugate for promising cancer therapy with comprehensive evaluation from rodents to non-human primates” (Signal Transduction and Targeted Therapy, 2025).
Starred links: 1 amine or outer side, 2 acyl side, 3 side chain; linkers in the order of their positions; H or OH if unused. Non-standard residues stand in square brackets, D forms with d. Residues, ends and D or L forms follow the SMILES beside them. *: point of attachment. Dolaproine = CO[C@@H]([C@@H]1CCCN1)[C@@H](C)C(=O)O; Hexanoyl(6-maleimido) = O=C1C=CC(=O)N1CCCCCC(=O)*; Dil = CC[C@H](C)[C@H](NC)[C@@H](CC(=O)O)OC; PABC = O=C(OCc1ccc(N[*:1])cc1)[*:2]; X1 = C[C@@H](N*)[C@@H](O)c1ccccc1; Cit = NC(=O)NCCC[C@H](N)C(=O)O; NMeV = CN[C@H](C(=O)O)C(C)C

How the values were obtained:
Format in all cases: cell-based
OVCAR3 cells = assay: 72-h cytotoxicity (MTS), OVCAR3; conditions: OVCAR3, 72 h
Description: (§1) Cells were seeded in wells of a 96-well plate (6000 cells/well) and incubated overnight to allow for cell adherence. On the second day, 100 μL complete medium containing VcMMAE and Sgc8c-M (400, 200, 100, 50, 25, 12.5, and 6.25 nM), as well as MMAE (5, 2.5, 1.25, 0.625, 0.3125, 0.15625, and 0.078125 nM), were added to wells of a 96-well plate for an additional 72-h incubation at 37 °C. At the end of incubation, 100 μL of CellTiter 96® Aqueous One Solution Cell Proliferation Assay (MTS, Promega) solution (prepared by mixing 2 mL MTS with 9 mL of complete medium) were added to each well. The plates were then incubated for an additional 1–2 h to allow for the formation of formazan crystals. The absorbance of each well was measured at 490 nm using a Multi-Mode Microplate Reader (TECAN, SPARK) to assess cell viability. Cell viability was calculated as [OD490 (treatment) - OD490 (blank)]/[OD490 (nontreatment) - OD490 (blank)] × 100%.

MIA PaCa-2 cells = assay: 72-h cytotoxicity (MTS), MIA PaCa-2; conditions: MIA PaCa-2, 72-h incubation
Description: as §1

HT-29 cells = assay: 72-h cytotoxicity (MTS), HT-29; conditions: HT-29, 72 h
Description: as §1

`CC[C@H](C)[C@@H]([C@@H](CC(=O)N1CCC[C@H]1[C@H](OC)[C@@H](C)C(=O)N[C@H](C)[C@@H](O)c1ccccc1)OC)N(C)C(=O)[C@@H](NC(=O)[C@H](C(C)C)N(C)C(=O)OCc1ccc(NC(=O)[C@H](CCCNC(N)=O)NC(=O)[C@@H](NC(=O)CCCCCN2C(=O)C=CC2=O)C(C)C)cc1)C(C)C` [VcMMAE, MC-VC-PAB-MMAE] ({Hexanoyl(6-maleimido)}-V[Cit][PABC][NMeV]V[Dil][Dolaproine]-X1) showed an IC50 (OVCAR3 cells) of 105 nM, an IC50 (MIA PaCa-2 cells) of 187 nM and an IC50 (HT-29 cells) of 203 nM.
